PubChem BioAssay (NCI)
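Tested at 5 concentrations; 48 h exposure; 96-well plates; endpoints linearly interpolated, else capped at highest concentration. Abbreviation: GI50, concentration required for 50% inhibition of growth. TGI marks complete inhibition of growth.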

Tests used:
Experiment in all cases: NCI-60 cell line screen, 48 h
OVCAR-3 ovarian = test system: OVCAR-3 ovarian
CAKI-1 renal = test system: CAKI-1 renal
NCI-H460 lung = test system: NCI-H460 lung
SR leukemia = test system: SR leukemia
SNB-75 CNS = test system: SNB-75 CNS
ACHN renal = test system: ACHN renal
UO-31 renal = test system: UO-31 renal
786-0 renal = test system: 786-0 renal
NCI-H23 lung = test system: NCI-H23 lung
U251 CNS = test system: U251 CNS
LOX IMVI melanoma = test system: LOX IMVI melanoma
K-562 leukemia = test system: K-562 leukemia
SK-MEL-2 melanoma = test system: SK-MEL-2 melanoma
RPMI-8226 leukemia = test system: RPMI-8226 leukemia
HOP-92 NSCLC = test system: HOP-92 NSCLC
SK-MEL-28 melanoma = test system: SK-MEL-28 melanoma
HCT-116 colon = test system: HCT-116 colon
HCT-15 colon = test system: HCT-15 colon
SF-295 CNS = test system: SF-295 CNS
NCI/ADR-RES ovarian = test system: NCI/ADR-RES ovarian
OVCAR-5 ovarian = test system: OVCAR-5 ovarian
A549 NSCLC = test system: A549 NSCLC
UACC-62 melanoma = test system: UACC-62 melanoma
HCC-2998 colon = test system: HCC-2998 colon
HT29 colon = test system: HT29 colon
IGROV1 ovarian = test system: IGROV1 ovarian
SW-620 colon = test system: SW-620 colon
NCI-H522 lung = test system: NCI-H522 lung
NCI-H226 lung = test system: NCI-H226 lung
T-47D breast = test system: T-47D breast
OVCAR-8 ovarian = test system: OVCAR-8 ovarian
EKVX NSCLC = test system: EKVX NSCLC
MDA-MB-231 breast = test system: MDA-MB-231 breast
SK-OV-3 ovarian = test system: SK-OV-3 ovarian
PC-3 prostate = test system: PC-3 prostate
MCF7 breast = test system: MCF7 breast
SF-268 CNS = test system: SF-268 CNS
HS 578T breast = test system: HS 578T breast
KM12 colon = test system: KM12 colon
SN12C renal = test system: SN12C renal
CCRF-CEM leukemia = test system: CCRF-CEM leukemia
UACC-257 melanoma = test system: UACC-257 melanoma
TK-10 renal = test system: TK-10 renal
BT-549 breast = test system: BT-549 breast
OVCAR-4 ovarian = test system: OVCAR-4 ovarian
HL-60(TB) leukemia = test system: HL-60(TB) leukemia
SK-MEL-5 melanoma = test system: SK-MEL-5 melanoma
SF-539 CNS = test system: SF-539 CNS
HOP-62 NSCLC = test system: HOP-62 NSCLC
RXF 393 renal = test system: RXF 393 renal
MALME-3M melanoma = test system: MALME-3M melanoma
DU-145 prostate = test system: DU-145 prostate
MOLT-4 leukemia = test system: MOLT-4 leukemia
SNB-19 CNS = test system: SNB-19 CNS
COLO 205 colon = test system: COLO 205 colon
A498 renal = test system: A498 renal

Compound `NC(=O)c1cccc(-c2cc(C(N)=O)ccc2Cl)c1` has a GI50 (OVCAR-3 ovarian) of 2.36 µM, a TGI (OVCAR-3 ovarian) of 37.5 µM and a GI50 (CAKI-1 renal) of 2.66 µM. For the same compound, the TGI (CAKI-1 renal) was > 100 µM, the GI50 (NCI-H460 lung) was 12.2 µM and the TGI (NCI-H460 lung) was 54 µM. For the same compound, the GI50 (SR leukemia) was 0.389 µM, the TGI (SR leukemia) was 18.3 µM and the GI50 (SNB-75 CNS) was 1.1 µM. For the same compound, the TGI (SNB-75 CNS) was 5.5 µM, the GI50 (ACHN renal) was 6.46 µM and the TGI (ACHN renal) was > 100 µM. The GI50 (UO-31 renal) was 4.61 µM, the TGI (UO-31 renal) was > 100 µM and the GI50 (786-0 renal) was 5.37 µM. The TGI (786-0 renal) was > 100 µM, the GI50 (NCI-H23 lung) was 9.21 µM and the TGI (NCI-H23 lung) was > 100 µM. The GI50 (U251 CNS) was 2.88 µM, the TGI (U251 CNS) was > 100 µM and the GI50 (LOX IMVI melanoma) was 4.84 µM. For the same compound, the TGI (LOX IMVI melanoma) was > 100 µM, the GI50 (K-562 leukemia) was 0.36 µM and the TGI (K-562 leukemia) was > 100 µM. The GI50 (SK-MEL-2 melanoma) was 5.21 µM, the TGI (SK-MEL-2 melanoma) was > 100 µM and the GI50 (RPMI-8226 leukemia) was 0.318 µM. The TGI (RPMI-8226 leukemia) was 3.11 µM, the TGI (HOP-92 NSCLC) was 6.99 µM and the GI50 (SK-MEL-28 melanoma) was 7.17 µM. The TGI (SK-MEL-28 melanoma) was > 100 µM, the GI50 (HCT-116 colon) was 2.35 µM and the TGI (HCT-116 colon) was > 100 µM. For the same compound, the GI50 (HCT-15 colon) was 0.846 µM, the TGI (HCT-15 colon) was > 100 µM and the GI50 (SF-295 CNS) was 2.41 µM. It also gave a TGI (SF-295 CNS) of 21.2 µM, a GI50 (NCI/ADR-RES ovarian) of 1.51 µM and a TGI (NCI/ADR-RES ovarian) of 25.9 µM. For the same compound, the GI50 (OVCAR-5 ovarian) was 4.11 µM, the TGI (OVCAR-5 ovarian) was > 100 µM and the GI50 (A549 NSCLC) was 12.4 µM. For the same compound, the TGI (A549 NSCLC) was > 100 µM, the GI50 (UACC-62 melanoma) was 1.77 µM and the TGI (UACC-62 melanoma) was 56 µM. The GI50 (HCC-2998 colon) was 7.43 µM, the TGI (HCC-2998 colon) was > 100 µM and the GI50 (HT29 colon) was 1.19 µM. The TGI (HT29 colon) was > 100 µM, the GI50 (IGROV1 ovarian) was 4.21 µM and the TGI (IGROV1 ovarian) was > 100 µM. For the same compound, the GI50 (SW-620 colon) was 2.14 µM, the TGI (SW-620 colon) was > 100 µM and the GI50 (NCI-H522 lung) was 2.39 µM. For the same compound, the TGI (NCI-H522 lung) was 23.2 µM, the GI50 (NCI-H226 lung) was 13.4 µM and the TGI (NCI-H226 lung) was > 100 µM. For the same compound, the GI50 (T-47D breast) was 4.56 µM, the TGI (T-47D breast) was > 100 µM and the GI50 (OVCAR-8 ovarian) was 4.32 µM. The TGI (OVCAR-8 ovarian) was > 100 µM, the GI50 (EKVX NSCLC) was 4.37 µM and the TGI (EKVX NSCLC) was > 100 µM. For the same compound, the GI50 (MDA-MB-231 breast) was 4.52 µM, the TGI (MDA-MB-231 breast) was > 100 µM and the GI50 (SK-OV-3 ovarian) was 5.63 µM. The TGI (SK-OV-3 ovarian) was > 100 µM, the GI50 (PC-3 prostate) was 3.03 µM and the TGI (PC-3 prostate) was 40.9 µM. The GI50 (MCF7 breast) was 1.01 µM, the TGI (MCF7 breast) was > 100 µM and the GI50 (SF-268 CNS) was 5.68 µM. For the same compound, the TGI (SF-268 CNS) was > 100 µM, the GI50 (HS 578T breast) was 2.59 µM and the TGI (HS 578T breast) was > 100 µM. For the same compound, the GI50 (KM12 colon) was 1.88 µM, the TGI (KM12 colon) was > 100 µM and the GI50 (SN12C renal) was 4.85 µM. The TGI (SN12C renal) was 88.3 µM, the GI50 (CCRF-CEM leukemia) was 2.19 µM and the TGI (CCRF-CEM leukemia) was > 100 µM. The GI50 (UACC-257 melanoma) was 25.9 µM, the TGI (UACC-257 melanoma) was > 100 µM and the GI50 (TK-10 renal) was 9.12 µM. For the same compound, the TGI (TK-10 renal) was > 100 µM, the GI50 (BT-549 breast) was 6.82 µM and the TGI (BT-549 breast) was > 100 µM. For the same compound, the GI50 (OVCAR-4 ovarian) was 9.21 µM, the TGI (OVCAR-4 ovarian) was > 100 µM and the GI50 (HL-60(TB) leukemia) was 2.42 µM. The TGI (HL-60(TB) leukemia) was 5.91 µM, the GI50 (SK-MEL-5 melanoma) was 3.62 µM and the TGI (SK-MEL-5 melanoma) was 14.8 µM. It also gave a GI50 (SF-539 CNS) of 1.65 µM, a TGI (SF-539 CNS) of 4.85 µM and a GI50 (HOP-62 NSCLC) of 3.51 µM. For the same compound, the TGI (HOP-62 NSCLC) was > 100 µM, the GI50 (RXF 393 renal) was 2.11 µM and the TGI (RXF 393 renal) was 5.26 µM. The GI50 (MALME-3M melanoma) was 3.98 µM, the TGI (MALME-3M melanoma) was > 100 µM and the GI50 (DU-145 prostate) was 3.78 µM. The TGI (DU-145 prostate) was > 100 µM, the GI50 (MOLT-4 leukemia) was 2.22 µM and the TGI (MOLT-4 leukemia) was 95.7 µM. The GI50 (SNB-19 CNS) was 2.89 µM, the TGI (SNB-19 CNS) was > 100 µM and the GI50 (COLO 205 colon) was 3.21 µM. The TGI (COLO 205 colon) was > 100 µM, the GI50 (A498 renal) was 3.03 µM and the TGI (A498 renal) was 15.3 µM.
